These results are taken from patent US20260193264A1, “BENZOYPARAZINE PYRAZINES AND THEIR USES” (FOGHORN THERAPEUTICS INC., priority 2022, published 2026).

For test [1], the target named is T1, HiBiT-BRM fusion protein in stable HeLa cell line (Homo sapiens, UniProt P51531).
T1 construct: expressed in transfected cells
Kind of test: HiBiT-BRM cell-based degradation assay (Nano-Glo HiBiT Lytic Detection, 24 h). More on the design: DC50: scale not given here. The settings on record: HeLa HiBiT-BRM cells; for DC50: read-out: BRM HiBit Degradation IC50; for BRM HiBit Degradation Maximum (%): top dose 30 μM. The essentials: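 Luminescence from HiBiT/LgBiT complementation after lysis reports remaining HiBiT-BRM in stable HeLa cells exposed to compound for 24 h. Dosing used 3-fold serial dilutions, 10 points, 30 μM top final concentration. DMSO and a 2 μM BRM/BRG1 degrader standard defined 0% and 100% degradation.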
On the technique in general: The HiBiT peptide binds its large partner to form an active luciferase.

Test [2] concerns the target T2, HiBit-BRG1 fusion protein in stable HeLa cell line expressing HiBit-BRG1 and LgBit (Homo sapiens, UniProt P51532).
T2 construct: expressed in transfected cells
Description: HiBiT-BRG1 cell-based degradation assay (Nano-Glo HiBiT, 24 h). The settings on record: HeLa HiBit-BRG1/LgBit cells; for DC50: read-out: BRMG1 HiBit Degradation IC50; for Dmax: top dose 30 μM, read-out: BRG1 HiBit Degradation Maximum (%). The essentials:
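Stable HeLa line co-expressing HiBiT-BRG1 and LgBiT, compound-treated 24 h; luminescence read after Nano-Glo HiBiT lytic reagent. % degradation normalised between DMSO (high control) and 2 μM reference BRM/BRG1 degrader (low control).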

T2 sequence (P51532 whole entry, the tested form may be a part): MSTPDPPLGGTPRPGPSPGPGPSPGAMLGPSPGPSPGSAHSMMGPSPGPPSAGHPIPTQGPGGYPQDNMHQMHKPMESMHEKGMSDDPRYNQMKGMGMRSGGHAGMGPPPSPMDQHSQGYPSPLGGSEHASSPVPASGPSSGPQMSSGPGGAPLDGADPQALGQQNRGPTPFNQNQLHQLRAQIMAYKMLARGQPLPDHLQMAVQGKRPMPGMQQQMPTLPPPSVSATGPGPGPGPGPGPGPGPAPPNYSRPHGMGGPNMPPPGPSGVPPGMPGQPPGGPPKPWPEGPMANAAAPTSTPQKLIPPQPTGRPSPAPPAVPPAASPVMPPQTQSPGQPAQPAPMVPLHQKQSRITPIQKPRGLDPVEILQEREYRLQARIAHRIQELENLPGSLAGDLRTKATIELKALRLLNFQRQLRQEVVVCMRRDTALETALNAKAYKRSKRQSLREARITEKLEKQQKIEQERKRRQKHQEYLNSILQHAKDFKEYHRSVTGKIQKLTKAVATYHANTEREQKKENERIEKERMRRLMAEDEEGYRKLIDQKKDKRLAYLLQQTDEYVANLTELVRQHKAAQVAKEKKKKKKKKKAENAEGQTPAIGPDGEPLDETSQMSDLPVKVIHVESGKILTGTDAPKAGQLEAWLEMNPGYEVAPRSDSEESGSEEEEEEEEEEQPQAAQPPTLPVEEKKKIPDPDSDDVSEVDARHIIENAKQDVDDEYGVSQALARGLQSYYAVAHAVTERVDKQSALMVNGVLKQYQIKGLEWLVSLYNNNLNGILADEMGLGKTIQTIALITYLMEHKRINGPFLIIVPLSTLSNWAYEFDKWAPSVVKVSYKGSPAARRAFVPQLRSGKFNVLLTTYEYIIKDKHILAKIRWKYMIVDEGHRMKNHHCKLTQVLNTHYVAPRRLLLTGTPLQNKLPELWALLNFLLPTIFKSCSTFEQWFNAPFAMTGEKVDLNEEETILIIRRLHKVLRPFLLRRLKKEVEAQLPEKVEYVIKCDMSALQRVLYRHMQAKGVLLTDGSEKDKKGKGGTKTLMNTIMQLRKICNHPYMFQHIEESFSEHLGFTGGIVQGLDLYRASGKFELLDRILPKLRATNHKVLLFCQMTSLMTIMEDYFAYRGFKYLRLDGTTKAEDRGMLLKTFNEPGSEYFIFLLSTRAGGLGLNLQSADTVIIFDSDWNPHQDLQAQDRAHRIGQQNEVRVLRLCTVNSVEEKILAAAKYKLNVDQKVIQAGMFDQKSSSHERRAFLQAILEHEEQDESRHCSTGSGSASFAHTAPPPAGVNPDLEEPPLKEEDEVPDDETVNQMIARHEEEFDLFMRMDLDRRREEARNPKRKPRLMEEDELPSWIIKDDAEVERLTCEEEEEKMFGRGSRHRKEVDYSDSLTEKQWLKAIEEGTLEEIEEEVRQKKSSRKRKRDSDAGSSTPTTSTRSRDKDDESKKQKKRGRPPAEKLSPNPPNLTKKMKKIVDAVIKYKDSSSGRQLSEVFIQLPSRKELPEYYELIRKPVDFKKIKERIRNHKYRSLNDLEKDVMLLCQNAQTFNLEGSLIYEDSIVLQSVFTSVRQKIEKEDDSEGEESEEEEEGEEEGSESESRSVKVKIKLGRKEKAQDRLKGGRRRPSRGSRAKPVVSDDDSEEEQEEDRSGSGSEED
T1 sequence (P51531 whole entry, the tested form may be a part): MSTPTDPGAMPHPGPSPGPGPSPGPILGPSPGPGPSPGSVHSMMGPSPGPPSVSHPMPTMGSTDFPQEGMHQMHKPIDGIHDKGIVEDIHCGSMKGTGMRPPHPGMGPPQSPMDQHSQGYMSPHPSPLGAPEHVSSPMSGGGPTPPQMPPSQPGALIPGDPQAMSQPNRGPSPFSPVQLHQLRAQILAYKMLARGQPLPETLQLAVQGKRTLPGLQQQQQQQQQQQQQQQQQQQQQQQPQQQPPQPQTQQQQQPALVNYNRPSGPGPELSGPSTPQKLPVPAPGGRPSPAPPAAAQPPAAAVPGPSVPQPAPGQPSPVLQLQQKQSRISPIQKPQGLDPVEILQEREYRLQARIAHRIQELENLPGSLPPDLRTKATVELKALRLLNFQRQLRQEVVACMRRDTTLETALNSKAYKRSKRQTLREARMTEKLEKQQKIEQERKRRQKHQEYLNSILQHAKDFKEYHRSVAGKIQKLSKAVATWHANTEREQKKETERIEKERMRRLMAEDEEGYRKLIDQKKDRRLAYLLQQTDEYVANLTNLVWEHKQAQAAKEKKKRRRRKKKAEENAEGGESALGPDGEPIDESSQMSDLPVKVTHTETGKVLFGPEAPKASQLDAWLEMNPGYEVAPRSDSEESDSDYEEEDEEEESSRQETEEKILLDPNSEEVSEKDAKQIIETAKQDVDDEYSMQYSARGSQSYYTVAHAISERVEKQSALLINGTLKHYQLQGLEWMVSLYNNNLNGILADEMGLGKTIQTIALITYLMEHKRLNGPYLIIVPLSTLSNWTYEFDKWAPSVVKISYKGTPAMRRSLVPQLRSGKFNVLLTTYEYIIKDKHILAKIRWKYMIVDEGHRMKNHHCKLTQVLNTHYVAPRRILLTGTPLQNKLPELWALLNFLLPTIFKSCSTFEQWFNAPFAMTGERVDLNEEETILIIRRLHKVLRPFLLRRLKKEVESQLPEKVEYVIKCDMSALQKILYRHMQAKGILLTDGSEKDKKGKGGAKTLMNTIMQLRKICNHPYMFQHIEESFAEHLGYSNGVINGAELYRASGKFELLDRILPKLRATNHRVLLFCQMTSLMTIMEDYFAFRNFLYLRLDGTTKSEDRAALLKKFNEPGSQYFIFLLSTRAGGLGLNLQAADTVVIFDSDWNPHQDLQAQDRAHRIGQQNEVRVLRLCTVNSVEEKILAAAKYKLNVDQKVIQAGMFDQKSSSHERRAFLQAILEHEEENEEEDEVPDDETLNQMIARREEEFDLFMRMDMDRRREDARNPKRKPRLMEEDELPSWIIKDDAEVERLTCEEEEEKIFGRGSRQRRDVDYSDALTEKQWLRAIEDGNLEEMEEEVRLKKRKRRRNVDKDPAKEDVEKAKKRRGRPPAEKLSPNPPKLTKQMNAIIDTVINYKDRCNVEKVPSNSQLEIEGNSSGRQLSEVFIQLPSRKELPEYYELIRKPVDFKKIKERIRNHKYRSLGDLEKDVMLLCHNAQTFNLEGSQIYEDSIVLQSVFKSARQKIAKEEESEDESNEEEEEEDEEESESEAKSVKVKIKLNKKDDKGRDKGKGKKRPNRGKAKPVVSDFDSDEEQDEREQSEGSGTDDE

Consider `Cc1ncsc1-c1ccc([C@H](C)NC(=O)[C@@H]2C[C@@H](O)CN2C(=O)[C@H](C(C)C)n2cc(C3CC4(CC(c5ccc6nnc(-c7ccccc7O)cc6c5)C4)C3)nn2)cc1` (stereo partly drawn) [Compound 230, (2S,4R)-4-hydroxy-1-((S)-2-(4-(6-(3-(2-hydroxyphenyl)cinnolin-6-yl)spiro[3.3]heptan-2-yl)-1H-1,2,3-triazol-1-yl)-3-methylbutanoyl)-N-((S)-1-(4-(4-methylthiazol-5-yl)phenyl)ethyl)pyrrolidine-2-carboxamide], for which, in test [1], the DC50 is less than 10 nM and the “BRM HiBit Degradation Maximum (%)” value is “A (“A” indicates maximum degradation ≥75%)”. Besides, in test [2], the DC50 is more than 10 nM and the Dmax was more than 75%.
On the same counts, the results for `Cc1ncsc1-c1ccc([C@H](C)NC(=O)[C@@H]2C[C@@H](O)CN2C(=O)C(C(C)C)n2cc(N3CCC4C(C3)CN4c3ccc4cc(-c5ccccc5O)nnc4c3)nn2)cc1` (stereo partly drawn) [Compound 263, (2S,4R)-4-hydroxy-1-(2-(4-(7-(3-(2-hydroxyphenyl)cinnolin-7-yl)-3,7-diazabicyclo[4.2.0]octan-3-yl)-1H-1,2,3-triazol-1-yl)-3-methylbutanoyl)-N-((S)-1-(4-(4-methylthiazol-5-yl)phenyl)ethyl)pyrrolidine-2-carboxamide] are more than 10 nM, “A (“A” indicates maximum degradation ≥75%)”, more than 10 nM and more than 75%.
As for `Cc1nc(N2CCC(c3ccc4nnc(-c5ccccc5O)cc4c3)CC2)ccc1-c1cc([C@H](C(=O)N2C[C@H](O)C[C@H]2C(=O)N[C@@H](C)c2ccc(-c3scnc3C)cc2)C(C)C)on1` [Compound 69, (2S,4R)-4-hydroxy-1-((R)-2-(3-(6-(4-(3-(2-hydroxyphenyl)cinnolin-6-yl)piperidin-1-yl)-2-methylpyridin-3-yl)isoxazol-5-yl)-3-methylbutanoyl)-N-((S)-1-(4-(4-methylthiazol-5-yl)phenyl)ethyl)pyrrolidine-2-carboxamide], in test [1], the DC50 is less than 10 nM and the “BRM HiBit Degradation Maximum (%)” value was “A (“A” indicates maximum degradation ≥75%)”. In test [2], the DC50 is more than 100 nM and the Dmax was more than 50%.
Taken in the same sequence, the figures for `Cc1ncsc1-c1ccc([C@H](C)NC(=O)[C@@H]2C[C@@H](O)CN2C(=O)[C@@H](c2cc(N3C[C@]4(C)CN(c5ccc6cc(-c7ccccc7O)nnc6c5)C[C@]4(C)C3)no2)C(C)C)cc1` [Compound 187, (2S,4R)-4-hydroxy-1-((R)-2-(3-((3aR,6aS)-5-(3-(2-hydroxyphenyl)cinnolin-7-yl)-3a,6a-dimethylhexahydropyrrolo[3,4-c]pyrrol-2(1H)-yl)isoxazol-5-yl)-3-methylbutanoyl)-N-((S)-1-(4-(4-methylthiazol-5-yl)phenyl)ethyl)pyrrolidine-2-carboxamide] were less than 10 nM, “A (“A” indicates maximum degradation ≥75%)”, more than 10 nM and more than 75%.
On the same counts, the results for `Cc1ncsc1-c1ccc([C@H](C)NC(=O)[C@@H]2C[C@@H](O)CN2C(=O)[C@@H](c2cc(N3CC4(CN(c5ccc6cc(-c7ccccc7O)nnc6c5)CCO4)C3)no2)C(C)C)cc1` [Compound 127, (2S,4R)-4-hydroxy-1-((R)-2-(3-(8-(3-(2-hydroxyphenyl)cinnolin-7-yl)-5-oxa-2,8-diazaspiro[3.5]nonan-2-yl)isoxazol-5-yl)-3-methylbutanoyl)-N-((S)-1-(4-(4-methylthiazol-5-yl)phenyl)ethyl)pyrrolidine-2-carboxamide] are less than 10 nM, “A (“A” indicates maximum degradation ≥75%)”, less than 10 nM and more than 75%.
Taken in the same sequence, the figures for `CC(C)[C@@H](C(=O)N1C[C@H](O)C[C@H]1C(=O)N[C@@H](C)c1ccc(Br)cc1)n1cc(-c2ccc3nnc(-c4cccc(F)c4O)cc3c2)nn1` [Compound 178, (2S,4R)-N-((S)-1-(4-bromophenyl)ethyl)-1-((S)-2-(4-(3-(3-fluoro-2-hydroxyphenyl)cinnolin-6-yl)-1H-1,2,3-triazol-1-yl)-3-methylbutanoyl)-4-hydroxypyrrolidine-2-carboxamide] were less than 10 nM, “A (“A” indicates maximum degradation ≥75%)”, more than 10 nM and more than 75%.
Take `Cc1ncsc1-c1ccc([C@H](C)NC(=O)[C@@H]2C[C@@H](O)CN2C(=O)[C@@H](c2cc(-c3cnc(N4CC(c5cc(C6CC6)c6cc(-c7ccccc7O)nnc6c5)C4)nc3)no2)C(C)C)cc1` [Compound 77, (2S,4R)-1-((R)-2-(3-(2-(3-(5-cyclopropyl-3-(2-hydroxyphenyl)cinnolin-7-yl)azetidin-1-yl)pyrimidin-5-yl)isoxazol-5-yl)-3-methylbutanoyl)-4-hydroxy-N-((S)-1-(4-(4-methylthiazol-5-yl)phenyl)ethyl)pyrrolidine-2-carboxamide]: in test [1], the DC50 was less than 10 nM and the “BRM HiBit Degradation Maximum (%)” value is “A (“A” indicates maximum degradation ≥75%)”. The Dmax in test [2] is less than 50%.
For `Cc1ncsc1-c1ccc([C@H](C)NC(=O)[C@@H]2C[C@@H](O)CN2C(=O)[C@H](C(C)C)n2cc(N3CCC4(CCN(c5ccc6cc(-c7ccccc7O)nnc6c5)CC4)CC3)nn2)cc1` [Compound 192, (2S,4R)-4-hydroxy-1-((S)-2-(4-(9-(3-(2-hydroxyphenyl)cinnolin-7-yl)-3,9-diazaspiro [5.5]undecan-3-yl)-1H-1,2,3-triazol-1-yl)-3-methylbutanoyl)-N-((S)-1-(4-(4-methylthiazol-5-yl)phenyl)ethyl)pyrrolidine-2-carboxamide], in test [1], the DC50 was less than 10 nM and the “BRM HiBit Degradation Maximum (%)” value is given as “A (“A” indicates maximum degradation ≥75%)”. Further, in test [2], the DC50 was less than 10 nM and the Dmax is more than 75%.
In the case of `Cc1ncsc1-c1ccc([C@H](C)NC(=O)[C@@H]2C[C@@H](O)CN2C(=O)[C@@H](c2cc(N3CCC4(CC[C@H](c5ccc6nnc(-c7ccccc7O)cc6c5)C4)CC3)no2)C(C)C)cc1` [Compound 75, (2S,4R)-4-hydroxy-1-((R)-2-(3-((S)-2-(3-(2-hydroxyphenyl)cinnolin-6-yl)-8-azaspiro[4.5]decan-8-yl)isoxazol-5-yl)-3-methylbutanoyl)-N-((S)-1-(4-(4-methylthiazol-5-yl)phenyl)ethyl)pyrrolidine-2-carboxamide], in test [1], the DC50 was less than 10 nM and the “BRM HiBit Degradation Maximum (%)” value was “A (“A” indicates maximum degradation ≥75%)”. Also, in test [2], the DC50 is more than 10 nM and the Dmax is more than 75%.
`Cc1ncsc1-c1ccc([C@H](C)NC(=O)[C@@H]2C[C@@H](O)CN2C(=O)[C@@H](c2cc(N3CC4(C3)CN(c3cc5nnc(-c6ccccc6O)cc5cc3F)C4)no2)C(C)C)cc1` [Compound 179, (2S,4R)-1-((R)-2-(3-(6-(6-fluoro-3-(2-hydroxyphenyl)cinnolin-7-yl)-2,6-diazaspiro [3.3]heptan-2-yl)isoxazol-5-yl)-3-methylbutanoyl)-4-hydroxy-N-((S)-1-(4-(4-methylthiazol-5-yl)phenyl)ethyl)pyrrolidine-2-carboxamide]: in test [1], the DC50 was less than 10 nM and the “BRM HiBit Degradation Maximum (%)” value is listed as “A (“A” indicates maximum degradation ≥75%)”. The Dmax in test [2] is less than 50%.
On the same counts, the results for `Cc1ncsc1-c1ccc([C@H](C)NC(=O)[C@@H]2C[C@@H](O)CN2C(=O)[C@@H](c2cc(N3C[C@@H]4[C@H](C3)[C@H]4c3ccc4cc(-c5ccccc5O)nnc4c3)no2)C(C)C)cc1` [Compound 59, (2S,4R)-4-hydroxy-1-((R)-2-(3-((1R,5S,6S)-6-(3-(2-hydroxyphenyl)cinnolin-7-yl)-3-azabicyclo[3.1.0]hexan-3-yl)isoxazol-5-yl)-3-methylbutanoyl)-N-((S)-1-(4-(4-methylthiazol-5-yl)phenyl)ethyl)pyrrolidine-2-carboxamide] are less than 10 nM, “A (“A” indicates maximum degradation ≥75%)” and less than 50%.
Turning to `CC(C)[C@@H](C(=O)N1C[C@H](O)C[C@H]1C(=O)N[C@@H](C)c1ccc(F)cc1)n1cc(N2CC3(CN(c4ccc5cc(-c6ccccc6O)nnc5c4)C3)C2)nn1` [Compound 201, (2S,4R)-N-((S)-1-(4-fluorophenyl)ethyl)-4-hydroxy-1-((S)-2-(4-(6-(3-(2-hydroxyphenyl)cinnolin-7-yl)-2,6-diazaspiro[3.3]heptan-2-yl)-1H-1,2,3-triazol-1-yl)-3-methylbutanoyl)pyrrolidine-2-carboxamide], in test [1], the DC50 was less than 10 nM and the “BRM HiBit Degradation Maximum (%)” value was “A (“A” indicates maximum degradation ≥75%)”. In test [2], the DC50 was more than 10 nM and the Dmax was more than 50%.
On the same counts, the results for `Cc1ncsc1-c1ccc([C@H](C)NC(=O)[C@@H]2C[C@@H](O)CN2C(=O)[C@@H](c2cc(-c3cnc(N4CC5(CN(c6ccc7cc(-c8ccccc8O)nnc7c6)C5)C4)nc3)no2)C(C)C)cc1` [Compound 231, (2S,4R)-4-hydroxy-1-((R)-2-(3-(2-(6-(3-(2-hydroxyphenyl)cinnolin-7-yl)-2,6-diazaspiro[3.3]heptan-2-yl)pyrimidin-5-yl)isoxazol-5-yl)-3-methylbutanoyl)-N-((S)-1-(4-(4-methylthiazol-5-yl)phenyl)ethyl)pyrrolidine-2-carboxamide] are less than 10 nM, “A (“A” indicates maximum degradation ≥75%)”, less than 10 nM and more than 75%.
